Results: paper PMC12705226, “Lotusin A: a novel pyrrole terpenoid hydrid from lotus roots (Nelumbo nucifera Gaertn.)” (RSC Advances, 2025)
Like-named read-outs stand apart in the source and are kept apart here.

Assays:
α-glucosidase = α-glucosidase (Saccharomyces cerevisiae, UniProt P38158); test: biochemical
Protocol: The α-glucosidase inhibitory assay was performed using a somewhat modified method of Kurihara et al.[44] For every reaction, […] p-nitrophenyl-α-D-glucopyranoside, 50 mL of 0.1 U mL^−1, α-glucosidase in 0.01 M phosphate buffer (pH 7.0), […] of sample solution (various concentrations of compound 1 with 5, 10, 25, 50 µM) were mixed. The mixture was kept at 37 °C for 30 minutes and added with 0.1 M Na2CO3. Mixture after reaction will be measured at a wavelength of 401 nm. The IC50 values represented the inhibitor concentration that suppressed 50% of enzyme activity. […] All experiments were performed in triplicate. The percentage inhibition was calculated using the following equation: α-glucosidase inhibition (%) = (Ac − At)/Ac × 100, where Ac is the absorbance of control (α-glucosidase, without sample) and At is the absorbance of test samples (α-glucosidase, with sample). The experimental results were processed using the GraphPad Prism 8 software.

RAW264.7 cells = test: Determination of NO production in LPS-treated RAW264.7 cells (Griess reagent); type: cell-based; conditions: for IC50: Mus musculus
Protocol: The production of nitric oxide (NO) was quantified by measuring the NO levels in cell culture supernatants using a previously method. In brief, RAW264.7 cells (ATCC, Rockville, MD, USA, 1 × 10^5 cells per well) were treated with 1 µg mL^−1 of LPS for 24 h, with and without the test compounds (1–100 µM). After incubation, the supernatant (100 µL) was mixed with 100 µL of Griess reagent. The viability of the remaining cells was assessed using an MTT-based colorimetric assay as described above.

six bacterial strains = test: Antibacterial preliminary screening, text statements on all strains together; type: cell-based; conditions: concentration of 10 µM
Protocol: It is based on combined biological activities of reported pyrrole sesquiterpenes and available screening models in our lab, including those regarding anti-inflammatory activities, antibacterial activities, and inhibition of α-glucosidase. […] To further evaluate the biological potential of compounds 1–6, we examined their antibacterial activities through preliminary screening at a concentration of 10 µM. The assays were conducted against three Gram-positive bacterial strains (Staphylococcus aureus, Bacillus subtilis, and Micrococcus luteus) and three Gram-negative strains (Salmonella typhimurium, Escherichia coli, and Klebsiella pneumoniae). This comparative screening aimed to determine whether any of these compounds could inhibit bacterial growth under identical conditions by conducting further experiments.
The antibacterial activities of compounds 1–6 were evaluated in 96-well plates using a modified broth microdilution method previously reported by our group. The MIC of the isolated compounds was determined against Staphylococcus aureus, Bacillus subtilis, Micrococcus luteus, Salmonella typhimurium, Escherichia coli, and Klebsiella pneumonia. Bacterial strains were cultured on TSB (Tryptic Soy Broth) agar plates and incubated at 37 °C for 24 h. […]

Salmonella typhimurium = test: MIC measurement (broth microdilution); type: cell-based; conditions: Gram-negative; screening at 10.0 µM
Protocol: (§1) The MIC of the isolated compounds was determined against Staphylococcus aureus, Bacillus subtilis, Micrococcus luteus, Salmonella typhimurium, Escherichia coli, and Klebsiella pneumonia. Bacterial strains were cultured on TSB (Tryptic Soy Broth) agar plates and incubated at 37 °C for 24 h. A single colony was transferred to Muller–Hinton broth (MHB), continuously incubated and harvested after 24 h at 37 °C and centrifuged at 250 rpm. The suspensions were adjusted to 0.5 McFarland standard, diluted to achieve a final concentration of approximately 5 × 10^5 CFU mL^−1 and added to each well. All compounds were dissolved in DMSO and dispensed into 96-well plates at a starting concentration of 10 µM. Kanamycin was used as a positive control.

Micrococcus luteus = test: MIC measurement (broth microdilution); type: cell-based; conditions: Gram-positive; screening at 10.0 µM
Protocol: as §1, with “The antibacterial activities of compounds 1–6 were evaluated in 96-well plates using a modified broth microdilution method previously reported by our group. The MIC” for “The MIC”

Escherichia coli = test: MIC measurement (broth microdilution); type: cell-based; conditions: Gram-negative; screening at 10.0 µM
Protocol: as §1, with “The antibacterial activities of compounds 1–6 were evaluated in 96-well plates using a modified broth microdilution method previously reported by our group. The MIC” for “The MIC”

Staphylococcus aureus = test: MIC measurement (broth microdilution); type: cell-based; conditions: Gram-positive; screening at 10.0 µM
Protocol: as §1, with “The antibacterial activities of compounds 1–6 were evaluated in 96-well plates using a modified broth microdilution method previously reported by our group. The MIC” for “The MIC”

Bacillus subtilis = test: MIC measurement (broth microdilution); type: cell-based; conditions: Gram-positive; screening at 10.0 µM
Protocol: as §1, with “The antibacterial activities of compounds 1–6 were evaluated in 96-well plates using a modified broth microdilution method previously reported by our group. The MIC” for “The MIC”

Klebsiella pneumoniae = test: MIC measurement (broth microdilution); type: cell-based; conditions: Gram-negative; screening at 10.0 µM
Protocol: as §1, with “The antibacterial activities of compounds 1–6 were evaluated in 96-well plates using a modified broth microdilution method previously reported by our group. The MIC” for “The MIC”

[1] = RAW264.7, 24 h, read-out: NO production (IC50, µM)

α-glucosidase, sequence (P38158 whole entry): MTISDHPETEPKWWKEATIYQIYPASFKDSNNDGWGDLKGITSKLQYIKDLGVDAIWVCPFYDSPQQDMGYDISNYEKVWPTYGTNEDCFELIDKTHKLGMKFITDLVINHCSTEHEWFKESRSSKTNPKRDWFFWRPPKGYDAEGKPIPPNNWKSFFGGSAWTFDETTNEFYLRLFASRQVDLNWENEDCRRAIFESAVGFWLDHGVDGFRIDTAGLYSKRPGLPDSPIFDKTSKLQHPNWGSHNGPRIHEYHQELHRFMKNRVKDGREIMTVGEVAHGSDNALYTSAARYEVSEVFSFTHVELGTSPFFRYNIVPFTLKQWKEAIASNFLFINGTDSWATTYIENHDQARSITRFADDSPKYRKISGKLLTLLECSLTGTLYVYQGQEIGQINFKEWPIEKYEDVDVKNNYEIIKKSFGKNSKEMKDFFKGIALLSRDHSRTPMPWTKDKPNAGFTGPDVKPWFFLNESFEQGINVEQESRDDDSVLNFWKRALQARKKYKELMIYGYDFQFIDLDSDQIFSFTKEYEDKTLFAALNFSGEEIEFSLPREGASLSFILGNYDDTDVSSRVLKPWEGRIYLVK

Compound: CC[C@H](CC[C@@H](C)[C@H]1CC[C@H]2[C@@H]3CCC4=CC(=O)CC[C@]4(C)[C@H]3CC[C@]12C)C(C)C (stereo in doubt) [Compound 3, stigmast-4-en-3-one]
- IC50 (α-glucosidase): > 50 µM

Compound: CC1=C(O)C(=O)C=C2C1=CC=C1[C@@]2(C)CC[C@@]2(C)[C@@H]3C[C@](C)(C(=O)O)CC[C@]3(C)CC[C@]12C [Celastrol, reference compound]
- IC50 (RAW264.7 cells; RAW264.7 cells, 1 µg mL^−1 LPS, 24 h, read-out: NO production (IC50)): 1.2 µM

Compound: CO[C@@H](CC(=O)c1ccc[nH]1)C(N)=O [Compound 1, lotusin A]
- IC50 (RAW264.7 cells; [1]): 21.5 ± 0.3 µM
- IC50 (α-glucosidase; pH 7.0, 37 °C, 30 minutes, read-out: α-Glucosidase (IC50)): 18.2 ± 0.17 µM
- inhibition of microbial growth (six bacterial strains): no inhibition

Compound: CC(C)CCCC(C)C1CCC2C3CCC4CC(O)CCC4(C)C3CCC12C (centres unmarked) [Compound 2, cholestanol]
- IC50 (RAW264.7 cells; [1]): > 100 µM
- NO production (IC50, µM) (RAW264.7 cells; RAW264.7 cells, 1 µg mL^−1 LPS, 24 h): did not show any activity
- IC50 (α-glucosidase): > 50 µM

Compound: O=c1c(O)c(-c2ccc(O)c(O)c2)oc2cc(O)cc(O)c12 [Compound 4, quercetin]
- IC50 (α-glucosidase): > 50 µM

Compound: COc1cc(-c2oc3cc(O)cc(O)c3c(=O)c2O)ccc1O [Compound 5, isorhamnetin]
- IC50 (α-glucosidase): > 50 µM

Compound: O=c1cc(-c2ccc(O)cc2O)oc2cc(O)cc(O)c12 [Compound 6, norartocarpetin]
- IC50 (α-glucosidase; pH 7.0, 37 °C, 30 minutes, class symbol, read-out: α-Glucosidase (IC50)): > 50 µM

Compound: NC[C@H]1O[C@H](O[C@H]2[C@H](O)[C@@H](O[C@H]3O[C@H](CO)[C@@H](O)[C@H](N)[C@H]3O)[C@H](N)C[C@@H]2N)[C@H](O)[C@@H](O)[C@@H]1O [Kanamycin]
- MIC (10.0 µM) Salmonella typhimurium (Salmonella typhimurium): A.
- MIC (10.0 µM) Micrococcus luteus (Micrococcus luteus): A.
- MIC (10.0 µM) Escherichia coli (Escherichia coli): A.
- MIC (10.0 µM) Staphylococcus aureus (Staphylococcus aureus): A.
- MIC (10.0 µM) Bacillus subtilis (Bacillus subtilis): A.
- MIC (10.0 µM) Klebsiella pneumoniae (Klebsiella pneumoniae): A.
